Experiments:
EP2 = EP2 (Homo sapiens, UniProt P43116); assay: Competition binding, [3H]PGE2, EP2 (Ki); parameters: expressed in transfected cells; membranes or whole cells; settings: HEK 293 cells stably expressing human EP2, [3H]PGE2
Description: Competition binding experiments were performed in a medium containing Hank's balanced salt solution, Hepes 20 mM, pH 7.3, membranes (˜60 μg protein) or 2×10^5 cells from HEK 293 cells stably expressing human EP2 receptors, [^3H]PGE2 (10 nM) and various concentrations of test compounds in a total volume of 300 μl. Reaction mixtures were incubated at 23° C. for 60 min, and were filtered over Whatman GF/B filters under vacuum. Filters were washed three times with 5 ml ice-cold buffer containing 50 mM Tris/HCl (pH 7.3). Non-specific binding was estimated in the presence of excess unlabeled PGE2 (10 μM). Binding data fitted to the binding model for a single class of binding sites, using nonlinear regression analysis. IC50 values thus obtained were converted to Ki using the equation of Ki=(IC50/(1+[L]/KD) where [L] represents PGE2 concentration (10 nM) and KD the dissociation constant for [^3H]PGE2 at human EP2 receptors (40 nM).
(§1) HEK-293 cells stably expressing the human or feline FP receptor, or EP1, EP2, or EP4 receptors were washed with TME buffer, scraped from the bottom of the flasks, and homogenized for 30 sec using a Brinkman PT 10/35 polytron. TME buffer was added to achieve a final 40 ml volume in the centrifuge tubes (the composition of TME is 100 mM TRIS base, 20 mM MgCl2, […]; 10N HCl is added to achieve a pH of 7.4).
(§2) The cell homogenate was centrifuged at 19000 r.p.m. for 20 min at 4° C using a Beckman Ti-60 rotor. The resultant pellet was resuspended in TME buffer to give a final 1 mg/ml protein concentration, as determined by Biorad assay. Radioligand binding competition assays vs. [^3H-]17-phenyl PGF2α. (5 nM) were performed in a 100 μl volume for 60 min. Binding reactions were started by adding plasma membrane fraction. The reaction was terminated by the addition of 4 ml ice-cold TRIS-HCl buffer and rapid filtration through glass fiber GF/B filters using a Brandel cell harvester. The filters were washed 3 times with ice-cold buffer and oven dried for one hour.
(§3) [^3H-] PGE2 (specific activity 180 Ci mmol) was used as the radioligand for EP receptors. [^3H] 17-phenyl PGF2α, was employed for FP receptor binding studies. Binding studies employing EP1, EP2, EP4 and FP receptors were performed in duplicate in at least three separate experiments. A 200 μl assay volume was used. Incubations were for 60 min at 25° C. and were terminated by the addition of 4 ml of ice-cold 50 mM TRIS-HCl, followed by rapid filtration through Whatman GF/B filters and three additional 4 ml washes in a cell harvester (Brandel). Competition studies were performed using a final concentration of 5 nM [^3H]-PGE2, or 5 nM [^3H] 17-phenyl PGF2αand non-specific binding determined with 10^−5M of unlabeled PGE2, or 17-phenyl PGF2α, according to receptor subtype studied.

hEP2/Gqs5 = target: T1, hEP2/Gqs5 (Homo sapiens, UniProt P43116); assay: FLIPR calcium signal, EP2; format: cell-based; settings: HEK-293(EBNA), value outside parentheses, read-out: Ca2+ Signal-EC50 (nM) EP2
T1 construct: expressed in transfected cells
Description: (§4) HEK-293(EBNA) cells, stably expressing one type or subtype of recombinant human prostaglandin receptors (prostaglandin receptors expressed: hDP/Gqs5; hEP1; hEP2/Gqs5; hEP3A/Gqi5; hEP4/Gqs5; hFP; hIP; hTP), were cultured in 100 mm culture dishes in high-glucose DMEM medium containing 10% fetal bovine serum, 2 mM 1-glutamine, 250 μg/ml geneticin (G418) and 200 μg/ml hygromycin B as selection markers, and 100 units/ml penicillin G, 100 μg/ml streptomycin and 0.25 μg/ml amphotericin B.
(§5) Cells were seeded at a density of 5×10^4 cells per well in Biocoat® Poly-D-lysine-coated black-wall, clear-bottom 96-well plates (Becton-Dickinson) and allowed to attach overnight in an incubator at 37° C. Cells were then washed two times with HBSS-HEPES buffer (Hanks Balanced Salt Solution without bicarbonate and phenol red, 20 mM HEPES, pH 7.4) using a Denley Cellwash plate washer (Labsystems). After 45 minutes of dye-loading in the dark, using the calcium-sensitive dye Fluo-4 AM at a final concentration of 2 μM, plates were washed four times with HBSS-HEPES buffer to remove excess dye leaving 100 μl in each well. Plates were re-equilibrated to 37° C. for a few minutes.
(§6) Cells were excited with an Argon laser at 488 nm, and emission was measured through a 510-570 nm bandwidth emission filter (FLIPR™, Molecular Devices, Sunnyvale, Calif.). Drug solution was added in a 50 μl volume to each well to give the desired final concentration. The peak increase in fluorescence intensity was recorded for each well. On each plate, four wells each served as negative (HBSS-HEPES buffer) and positive controls (standard agonists: BW245C (hDP); PGE2 (HEP1; hEP2/Gqs5; hEP3A/Gqi5; hEP4/Gqs5); PGF2α (hFP); carbacyclin (hIP); U-46619 (hTP), depending on receptor). The peak fluorescence change in each drug-containing well was then expressed relative to the controls.
(§7) Compounds were tested in a high-throughput (HTS) or concentration-response (CoRe) format. In the HTS format, forty-four compounds per plate were examined in duplicates at a concentration of 10^−5 M. To generate concentration-response curves, four compounds per plate were tested in duplicates in a concentration range between 10^−5 and 10^−11 M. The duplicate values were averaged. In either, HTS or CoRe format each compound was tested on at least 3 separate plates using cells from different passages to give an n≧3.

hDP/Gqs5 = target: T2, hDP/Gqs5 (Homo sapiens, UniProt Q13258); assay: FLIPR calcium signal, DP; format: cell-based; settings: HEK-293(EBNA)
T2 construct: expressed in transfected cells
T2 sequence (Q13258 1-359): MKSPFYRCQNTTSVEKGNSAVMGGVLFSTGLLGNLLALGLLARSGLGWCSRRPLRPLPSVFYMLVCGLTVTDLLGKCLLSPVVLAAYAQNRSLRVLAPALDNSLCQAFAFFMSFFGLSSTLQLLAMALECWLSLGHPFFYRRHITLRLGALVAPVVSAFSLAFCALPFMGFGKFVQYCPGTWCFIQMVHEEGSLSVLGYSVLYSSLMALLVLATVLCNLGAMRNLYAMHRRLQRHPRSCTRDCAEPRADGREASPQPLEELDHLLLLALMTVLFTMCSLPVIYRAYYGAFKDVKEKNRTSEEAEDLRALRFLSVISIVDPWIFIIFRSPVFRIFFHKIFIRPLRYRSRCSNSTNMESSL
Description: as §4, §5, §6, §7

EP4 receptors = target: T3, EP4 receptors (Homo sapiens, UniProt P35408); assay: Radioligand binding, [3H]PGE2, EP4 (Ki); settings: HEK-293 cells stably expressing EP4, [3H]PGE2
T3 construct: expressed in transfected cells; membrane pellet
Description: as §1, §2, §3

T3 sequence (P35408 whole entry): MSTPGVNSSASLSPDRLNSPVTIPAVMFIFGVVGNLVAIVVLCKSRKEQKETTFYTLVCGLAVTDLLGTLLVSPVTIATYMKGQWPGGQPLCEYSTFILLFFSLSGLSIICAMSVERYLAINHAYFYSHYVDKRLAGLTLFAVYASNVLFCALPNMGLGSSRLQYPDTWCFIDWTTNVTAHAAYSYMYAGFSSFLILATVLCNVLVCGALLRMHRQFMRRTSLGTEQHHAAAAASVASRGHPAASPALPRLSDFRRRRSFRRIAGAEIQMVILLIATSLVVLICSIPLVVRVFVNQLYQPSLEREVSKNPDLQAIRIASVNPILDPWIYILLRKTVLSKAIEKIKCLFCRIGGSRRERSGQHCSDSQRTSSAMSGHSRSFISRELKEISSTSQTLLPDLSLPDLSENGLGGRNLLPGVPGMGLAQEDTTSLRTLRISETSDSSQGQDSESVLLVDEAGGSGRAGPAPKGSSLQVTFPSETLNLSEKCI
T1 sequence (P43116 whole entry): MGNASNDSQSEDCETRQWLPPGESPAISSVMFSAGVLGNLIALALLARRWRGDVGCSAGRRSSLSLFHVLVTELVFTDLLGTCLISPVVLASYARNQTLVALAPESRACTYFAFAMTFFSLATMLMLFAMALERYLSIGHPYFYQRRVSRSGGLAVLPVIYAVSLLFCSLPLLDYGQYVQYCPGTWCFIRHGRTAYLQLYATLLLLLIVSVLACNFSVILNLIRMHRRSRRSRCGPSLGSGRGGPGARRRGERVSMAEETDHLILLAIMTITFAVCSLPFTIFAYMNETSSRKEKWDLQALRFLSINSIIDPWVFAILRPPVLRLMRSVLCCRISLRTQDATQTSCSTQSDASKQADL
Sequence of EP2 (P43116 whole entry): as above

| Structure (SMILES) | Ki (EP2) | EC50 (hEP2/Gqs5) | Ca2+ Signal-EC50 (nM) DP (hDP/Gqs5) | Ki (EP4 receptors) | BINDING-Ki (nM) EP4 (EP4 receptors) |
| --- | --- | --- | --- | --- | --- |
| CCCCCC(O)c1ccc([C@@H]2[C@@H](C/C=C\CCCC(=O)O)[C@H](F)C[C@H]2O)cc1 (mixture of isomers) [Entry 8, (Z)-7-{(1R,2S,3R,5R)-5-Fluoro-3-hydroxy-2-[4-(1-hydroxy-hexyl)-phenyl]-cyclopentyl}-hept-5-enoic acid] | 804 nM | 53 nM | not active | > 10000 nM |  |
| CCCCCC(O)c1ccc([C@@H]2[C@@H](C/C=C\CCCC(=O)O)[C@H](Cl)C[C@H]2O)cc1 (mixture of isomers) [Entry 11, (Z)-7-{(1R,2S,3R,5R)-5-Chloro-3-hydroxy-2-[4-(1-hydroxy-hexyl)-phenyl]-cyclopentyl}-hept-5-enoic acid] | 209 nM | 7 nM | not active | > 10000 nM |  |
| O=C(O)CCC/C=C\C[C@@H]1[C@@H](c2ccc(C(O)CC3CCCCC3)cc2)[C@H](O)C[C@H]1Cl (mixture of isomers) [Entry 17, (Z)-7-{(1R,2S,3R,5R)-5-Chloro-2-[4-(2-cyclohexyl-1-hydroxy-ethyl)-phenyl]-3-hydroxy-cyclopentyl}-hept-5-enoic acid] | 483 nM | 953 nM | not active | 15900 nM |  |
| CC(C)(C)CCCC(O)c1ccc([C@@H]2[C@@H](CCCCCCC(=O)O)[C@H](Cl)C[C@H]2O)cc1 (mixture of isomers) [Entry 20, 7-{(1R,2S,3R,5R)-5-Chloro-3-hydroxy-2-[4-(1-hydroxy-5,5-dimethyl-hexyl)-phenyl]-cyclopentyl}-heptanoic acid] | 3850 nM | 5390 nM | not active | 3800 nM |  |
| O=C(O)CCC/C=C\C[C@@H]1[C@@H](c2ccc(C(O)Cc3ccccc3)cc2)[C@H](O)C[C@H]1Cl (mixture of isomers) [Entry 21, (Z)-7-{(1R,2S,3R,5R)-5-Chloro-3-hydroxy-2-[4-(1-hydroxy-2-phenyl-ethyl)-phenyl]-cyclopentyl}-hept-5-enoic acid] | 77 nM | 9 nM | not active | > 10000 nM |  |
| CCCCC(O)c1ccc([C@@H]2[C@@H](C/C=C\CCCC(=O)O)[C@H](Cl)C[C@H]2O)cc1 (mixture of isomers) [Entry 27, (Z)-7-{(1R,2S,3R,5R)-5-Chloro-3-hydroxy-2-[4-(1-hydroxy-pentyl)-phenyl]-cyclopentyl}-hept-5-enoic acid] | 589 nM |  | not active |  |  |
| CCCCC(O)C(C)(C)c1ccc([C@@H]2[C@@H](C/C=C\CCCC(=O)O)[C@H](Cl)C[C@H]2O)cc1 (mixture of isomers) [Entry 32, (Z)-7-{(1R,2S,3R,5R)-5-Chloro-3-hydroxy-2-[4-(2-hydroxy-1,1-dimethyl-hexyl)-phenyl]-cyclopentyl}-hept-5-enoic acid] | 225 nM | 164 nM | not active | 9640 nM |  |
| CCCCCC(O)c1ccc([C@@H]2[C@@H](C/C=C\CCCC(=O)O)[C@H](Cl)C[C@H]2O)cc1 (single isomer, unassigned) [Entry 12] | 209 nM | 36 nM | not active | > 10000 nM |  |
| CCCCCC(O)c1ccc([C@@H]2[C@@H](C/C=C\CCCC(=O)O)[C@H](Cl)C[C@H]2O)cc1 (single isomer, unassigned) [Entry 13] | 73 nM | 11 nM | not active | > 10000 nM |  |
| CCCCCC(O)c1ccc([C@@H]2[C@@H](CCCc3ccc(C(=O)O)s3)[C@H](Cl)C[C@H]2O)cc1 (stereo partly drawn) [Entry 2, 5-(3-{(1R,2S,3R,5R)-5-Chloro-3-hydroxy-2-[4-(1-hydroxy-hexyl)-phenyl]-cyclopentyl}-propyl)-thiophene-2-carboxylic acid] | 24 nM | 4 nM | not active | 3020 nM |  |
| CCCCCC(O)c1ccc([C@@H]2[C@@H](Cc3cccc(CCC(=O)O)c3)[C@H](Cl)C[C@H]2O)cc1 (stereo partly drawn) [Entry 3, 3-(3-{(1R,2S,3R,5R)-5-Chloro-3-hydroxy-2-[4-(1-hydroxy-hexyl)-phenyl]-cyclopentylmethyl}-phenyl)-propionic acid] | 2780 nM | 158 nM | not active | 3950 nM |  |
| CCCCCC(O)c1ccc([C@@H]2[C@@H](CCCc3ncc(C(=O)O)s3)[C@H](Cl)C[C@H]2O)cc1 (stereo partly drawn) [Entry 5, 2-(3-{(1R,2S,3R,5R)-5-Chloro-3-hydroxy-2-[4-(1-hydroxy-hexyl)-phenyl]-cyclopentyl}-propyl)-thiazole-5-carboxylic acid] | 6170 nM | 619 nM | not active |  |  |
| O=C(O)CCC/C=C\C[C@@H]1[C@@H](c2ccc(C(O)c3ccccc3)cc2)[C@H](O)C[C@H]1Cl (stereo partly drawn) [Entry 28, (Z)-7-{(1R,2S,3R,5R)-5-Chloro-3-hydroxy-2-[4-(hydroxy-phenyl-methyl)-phenyl]-cyclopentyl}-hept-5-enoic acid] | 564 nM | 142 nM |  |  | not active |
| CCCCCC(O)c1ccc([C@@H]2[C@@H](C/C=C\CCCC(=O)O)[C@H](Cl)C[C@@H]2O)cc1 (stereo partly drawn) [Entry 34, (Z)-7-{(1R,2S,3S,5R)-5-Chloro-3-hydroxy-2-[4-(1-hydroxy-hexyl)-phenyl]-cyclopentyl}-hept-5-enoic acid] | 12 nM | 16 nM | not active |  |  |

Source: patent publication US7585895B2, “Therapeutic substituted cyclopentanes” (Allergan, Inc., priority 2005, dated 2009)
